Experimental data reported in paper PMC5855688, “BC-Box Motif-Mediated Neuronal Differentiation of Somatic Stem Cells” (International Journal of Molecular Sciences, 2018).

Test system: skin-derived precursors (SKPs)
Test: Neurite outgrowth / morphological evaluation of neuronal differentiation
Format: cell-based, rat (neonate Wistar)
Conditions: delivered with TAT PTD, 1 to 5 μM
Protocol: Rodent skin-derived precursor cells (SKPs), which can differentiate to neurons, were used. SKPs were previously isolated from the back dermis of neonate Wistar rats by the authors. These cells were cultured in growth medium composed of DMEM/F12 (1:1; Gibco, Grand Island, NY, USA) containing 2% B27 supplement (Gibco), 20 ng/mL epidermal growth factor (EGF; Upstate Biotechnology, Lake Placid, NY, USA), and 40 ng/mL bFGF (PeproTech EC Ltd., Rocky Hill, NJ, USA) in a humidified incubator at 37 °C with 5% CO2. The floating clusters of cultured cells were centrifuged and dissociated into a single-cell suspension by use of a Pasteur pipette with a flame-polished tip. These single cells were then re-suspended into at a concentration of 50,000 cells/mL for passage or experiments. […]
Neurite outgrowth with length exceeding the diameter of the neuronal soma is often assessed as a morphological index of neuronal differentiation. […] Thereafter, neurite outgrowth was evaluated with the following 4 levels: +++, for above 50% of the cells showing neurite outgrowth; ++, for 20–50% with neurite outgrowth; +, for 5–19% having neurite outgrowth; and −, for below 5% of the cells with neurite outgrowth.

Row | Sequence | Neurite Outgrowth Activity (BC-box motif plus five C-terminal amino acids peptides) | Neurite Outgrowth Activity (BC-box motif alone (10-residue) peptides)
1 | YARAAARQARASLTHLCRLEIRSSIK [ASB3 BC-box motif plus five amino acids] | ++ (20–50% with neurite outgrowth) | –
2 | YARAAARQARASLTHLCRLEI [ASB3 BC-box motif alone] | – | - (below 5% of the cells with neurite outgrowth)
